Measured values from patent publication US20230417738A1, “Mass Spectrometric Determination of Cell Toxicity” (Bruker Daltonics GmbH & Co. KG, priority 2022, published 2023).

Test system: cells of the human continuous cell line A549
Type: cell-based
Conditions: 24 h
Description: The mass spectrometer 101 used was a non-spatial-resolution MALDI-ToF. Also, the matrix 29 was not true-to-position applied. Thus, the mass spectra 20 represent sum spectra of an entire sample spot 16 and have not been generated according to the invention. In addition, the mass spectra 20 are not spatially resolved. It is intended here, among other things, to clarify the cell-specific mass spectrometric signals 40, the cell-specific mass spectrometric signatures 41, the non-cell-specific mass spectrometric signals 55 and a possible determination of reference values. In particular, the mass spectrum 20 in FIG. 11 (b) is only an approximate example here, since a small residual number of animal cells 23, which were already present before the cultivation step S2 (cell seed), can generate largely weak cell-specific mass spectrometric signals 40. […] The animal cells 23 are cells of the continuous human cell line A549. The complex culture medium DMEN with 10% fetal calf serum (FCS) was used as culture medium. […]
The animal cells 23 are also cells of the human continuous cell line A549. […] Since this example is a sum mass spectrum of the entire sample spot 16 not according to the invention, sporadic weak cell-specific mass spectrometric signals 40 may be detected in this example, which are largely absent when using a spatial resolution mass spectrometer 1. […]

## CCCCCCCCCCCCCC[N+](C)(C)C.[Cl-] [tetradecyltrimethylammonium chloride]
  proliferation of the animal cells in the presence of the cytotoxic factor: no proliferation of the animal cells 23 occurred
